Experimental data as given in publication PMC10384440 (Viruses, 2023).
Like-named read-outs stand apart in the source and are kept apart here.

Tests used:
Type in all cases: cell-based
DENV-2 New Guinea = assay: Antiviral screening: NS1 protein production in DENV-2 infected Huh-7 cells; details: for effect on NS1 production vs viral control: DENV-2 infected Huh-7, 24 h, non-cytotoxic concentrations (between 40 and 100 µM); for NS1 production: DENV-2 infected Huh-7, MOI 1, 24 h, compounds at non-cytotoxic concentrations (between 40 and 100 µM), mycophenolic acid 20 µM, relative to viral control
Huh-7 cells = assay: Cytotoxic effect on Huh-7 cells, cell viability assay with resazurin; details: for effect on cell viability at 100 µM: highest concentration evaluated
[1] = as above; details: human
DENV-2 = assay: Viral RNA production of DENV-2 in infected Huh-7 cells (RT-qPCR); details: 50 µM; DENV-2 infected Huh-7; normalized using GAPDH; vs viral control
[2] = system: DENV-2 subgenomic replicon in Huh-7 cells; assay: NS5 protein production in Huh-7 DENV-2 replicon cells (ELISA)
[3] = Huh-7 cells, Huh-7 cell line, resazurin, read-out: CC50
[4] = Huh-7, all evaluated concentrations

SMILES	effect on NS1 production vs viral control (DENV-2 New Guinea)	CC50 [1, 3]	NS1 production (DENV-2 New Guinea)	effect on cell viability at the evaluated concentrations (Huh-7 cells; [4])	other results
O=C(Nc1ccc2c(c1)OCCO2)[C@@H]1CCCN1C(=O)[C@@H]1Cc2ccccc2CN1 [M76]	reduction in NS1 production	> 100 µM			effect on cell viability at 100 µM (Huh-7 cells; Huh-7): no effect was observed
CC1(C)CC(NC(=O)C2Cc3c([nH]c4ccccc34)C3c4ccccc4C(=O)N23)CC(C)(C)N1 (stereo not drawn) [M78]	reduction in NS1 production	60.8 µM	~38%		reduction of DENV-2 viral RNA (relative expression, 2^−ΔΔCT) (DENV-2): 1.7 times; effect on cell viability at 100 µM (Huh-7 cells; Huh-7): loss of viability; viability ([1]; Huh-7 cells, Huh-7, at 12.5, 25, and 50 µM, read-out: cellular viability): ~100%; selectivity index (SI), CC50/IC50 ([2]; CC50 Huh-7 / IC50 NS5 production): 2.5; IC50 ([2]; Dengue virus, DENV2, Huh-7 DENV-2 replicon, dose-response curve, 24 h): 24.6 µM; reduction of NS5 protein expression ([2]; Huh-7 DENV-2 replicon, 50 µM): 70%; NS5 production ([2]; Huh-7 DENV-2 replicon, 50 µM, 24 h, compared to VC (100%)): ~30%
O=C(NCCc1c[nH]c2ccccc12)C1Cc2c([nH]c3ccccc23)C2c3ccccc3C(=O)N12 (stereo not drawn) [MR25]	reduction in NS1 production	70.6 µM	~45%		
O=C(NCCc1ccccc1F)C1Cc2c([nH]c3ccccc23)C2c3ccccc3C(=O)N12 (stereo not drawn) [MR41]	reduction in NS1 production	> 100 µM		no effect was evidenced	
Cc1ccc(CNC(=O)C2Cc3c([nH]c4ccccc34)C3c4ccccc4C(=O)N23)cc1 (stereo not drawn) [MR94]	except for treatment with MR94	46.2 µM			
Cc1cc(C)cc(NC(=O)C(NC(=O)N2CC3CC(C2)c2cccc(=O)n2C3)C(C)C)c1 (stereo not drawn) [R07]	reduction in NS1 production				effect on cell viability at the evaluated concentrations (Huh-7 cells): did not reduce cell viability; CC50 ([1]; CC50): > 100 µM
O=C(NCc1ccccc1)C1Cc2c([nH]c3ccccc23)C2c3ccccc3C(=O)N12 (stereo not drawn) [R32]	reduction in NS1 production	> 100 µM		did not reduce cell viability	
O=C(NCCc1ccc(Cl)cc1)C1Cc2c([nH]c3ccccc23)C2c3ccccc3C(=O)N12 (stereo not drawn) [R53]		30 µM		reduced cell viability	
O=C(NCCc1ccccc1)C1Cc2c([nH]c3ccccc23)C2c3ccccc3C(=O)N12 (stereo not drawn) [R55]	reduction in NS1 production	> 100 µM		did not reduce cell viability	
COc1c(C)c2c(c(O)c1C/C=C(\C)CCC(=O)O)C(=O)OC2 [mycophenolic acid, Mycophenolic acid, reference compound]			around 63%		
